Assays:
Type in all cases: in vivo, human
[1] = Retrospective screen of chronic-care charts of obese hypertensive prisoners: random serum glucose, fasting lipid panel, blood pressure, weight; settings: for dose-dependent effects: chart study, discussion
Excerpt: One-hundred ten (110) patient charts in chronic care for hypertension at an 1800-capacity prison were initially screened. The data included age, weight, height, ethnicity, medications, lipid panel results for glucose, triglycerides and HDL-C, and blood pressure. All known or previously diagnosed diabetics were excluded from the study.
For cases involving ACE inhibitor plus simvastatin, further analysis included evaluation of total cholesterol and calculated low density lipoprotein (LDL-C).
In order to evaluate the effects of simvastatin without ACE inhibitor, 5 additional charts were screened (increasing n to 13).
The data were analyzed with respect to random serum lab values including random serum glucose and fasting lipid panel (which included total cholesterol, HDL-C, TG, and the calculated LDL-C). […] In addition, a few charts were evaluated for temporal changes spanning chronic care visits including weight, mean arterial blood pressure, medication adjustments, and random serum values of HDL-C, triglycerides, and glucose. A two-tailed student t test was used to test for significance between 2 sample means. Linear regression analysis with F statistic was used to obtain goodness of fit. Only coefficients of determination (r2) of 0.1 or greater were reported. […] The level of significance used was a probability (P)<0.05.

[2] = Example 2: ACE inhibitor given to non-obese person with low HDL-C; settings: 10 mg/day, after 1 year; baseline 30 mg/dL; without concomitant weight loss or lifestyle changes
Protocol: A non-obese person presents for physical examination. […] The patient's parent is on anti-hypertension and anti-lipemic medications. The patient's older sibling is obese, hypertensive, and is being treated for coronary artery disease including recent placement of a cardiac stent for primary coronary artery blockage. […] Given the patients family history and low HDL-C […] risk of developing one or more metabolic conditions is considered high. They are prescribed Lisinopril, 10 mg/day.

[3] = Example 3: ACE inhibitor given to severely obese person with low HDL-C; settings: 75 mg/day, after 1 year; baseline 25 mg/dL
Protocol: A person presents with normal blood pressure (125/85), normal fasting glucose (105 mg/dL), and normal triglyceride (145 mg/dL). They are severely obese with a BMI of 40. […] The patient is considered to be at significant risk of developing metabolic syndrome and/or cardiovascular disease later in life. They are advised of the risk and of the beneficial effects of losing weight. After 1 year the patient advises that despite strenuous effects to lose weight, including dieting and exercise, their bodyweight remains the same. They are prescribed Captopril, 75 mg/day.

[4] = FIG. 7, upper limit of normal daily dosages
[5] = one individual over 44 months (FIG. 3), captopril from 24 months, no anti-lipemic agent
[6] = FIG. 5A, controls without ACE inhibitor (with and without Hctz)

With `NCCCC[C@H](N[C@@H](CCc1ccccc1)C(=O)O)C(=O)N1CCC[C@H]1C(=O)O` [lisinopril] the “dose effects with glucose, triglyceride and HDL-C” value ([1]; 20 and 40 mg/day) was “occurred”, the “HDL-C, dose effect” value ([1]; FIG. 6A) was “significant (P<0.05) dose-dependent increase” and the “mean HDL-C” value [1, 4] was “parallel increases”. The mean glucose [1, 4] was “parallel decreases”, the mean triglyceride [1, 4] was “parallel decreases” and the dose-dependent effects [1] was “dose-dependent effects”. The HDL-C levels [2] was “have risen”.

With `C[C@H](CS)C(=O)N1CCC[C@H]1C(=O)O` [captopril] the “triglyceride, dose effect” value ([1]; FIG. 6B) was “significant (P <0.02) dose-dependent decrease”, the “mean HDL-C” value [1, 4] was “parallel increases” and the mean glucose [1, 4] was “parallel decreases”. The mean triglyceride [1, 4] was “parallel decreases”, the dose-dependent effects [1] was “dose-dependent effects” and the HDL-C ([1]; one individual followed over 44 months (FIG. 3), captopril introduced at 24 months, atenolol and hydrochlorothiazide discontinued, no anti-lipemic agent) was “increased”. For the same compound, the glucose [1, 5] was “decreased”, the “mean arterial blood pressure” value [1, 5] was “decreased” and the serum triglyceride [1, 5] was “decreased”. For the same compound, the HDL-C levels [3] was 30 mg/dL.

In the case of `CCOC(=O)[C@H](CCc1ccccc1)N[C@@H](C)C(=O)N1CCC[C@H]1C(=O)O` [enalapril], the “mean HDL-C” value [1, 4] is reported as “parallel increases”, the mean glucose [1, 4] is reported as “parallel decreases” and the mean triglyceride [1, 4] is reported as “parallel decreases”.

With `NS(=O)(=O)c1cc2c(cc1Cl)NCNS2(=O)=O` [Hctz, Hydrochlorothiazide] the mean glucose ([1]; FIG. 5A, controls without ACE inhibitor (stated for both controls, with and without Hctz)) was greater than 110 mg/dL, the “mean HDL-C” value [1, 6] was less than 42 mg/dL and the mean triglyceride [1, 6] was greater than 159 mg/dL. For the same compound, the “random serum glucose with age” value ([1]; FIG. 5C, absence of ACE inhibitor) was “caused an age-related increase”, the “mean glucose +/-SEM” value ([1]; presence of Hctz, n=15, no ACE inhibitor, no anti-lipemic) was 105.8 ± 5.4 mg/dL and the insulin-resistant state ([1]; with vs without Hctz, no ACE inhibitor) was “did not improve”.

In the case of `C[C@H](N[C@@H](CCc1ccccc1)C(=O)O)C(=O)N1CCC[C@H]1C(=O)O` [enalaprilat], the “potency at preventing insulin resistance” value ([1]; compared with captopril, at presumptive therapeutically equivalent antihypertensive dosages) is reported as “less potent”.
